From ChEMBL document CHEMBL1201862, “PubChem BioAssay data set” (2004)
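Exposure lasted 48 hours, with cells grown in 96-well plates and compounds tested at five concentrations. GI50 marks 50% less growth.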 Active and inactive are the calls of the source. No stated cut-off is given here; in the data, active = GI50 up to about 1.1 µM and inactive = higher.

What was measured:
Test in all cases: growth of human tumour cells (NCI), 48 h
[1] = test system: A498
[2] = test system: A549
[3] = test system: DU-145
[4] = test system: HCT-15
[5] = test system: HOP-92
[6] = test system: K562
[7] = test system: KM12
[8] = test system: LOX IMVI
[9] = test system: M14
[10] = test system: MCF7
[11] = test system: MDA-MB-231
[12] = test system: MOLT-4
[13] = test system: Malme-3M
[14] = test system: NCI-H23
[15] = test system: NCI-H522
[16] = test system: NCI/ADR-RES
[17] = test system: SN12C
[18] = test system: SR
[19] = test system: T47D
[20] = test system: UACC-62

Structure (SMILES) | GI50 [1] | GI50 [2] | GI50 [3] | GI50 [4] [µM] | GI50 [5] | GI50 [6] | GI50 [7] | GI50 [8] | GI50 [9] | GI50 [10] | GI50 [11] | GI50 [12] | GI50 [13] | GI50 [14] | GI50 [15] | GI50 [16] | GI50 [17] | GI50 [18] | GI50 [19] | GI50 [20]
N#CNC(=N)Nc1ccc(Cl)cc1 | > 100 µM (inactive) | > 100 µM (inactive) | > 100 µM (inactive) | > 100 | > 100 µM (inactive) | > 100 µM (inactive) | > 100 µM (inactive) | > 100 µM (inactive) | > 100 µM (inactive) | > 100 µM (inactive) | > 100 µM (inactive) | 36.4 µM (inactive) | > 100 µM (inactive) | > 100 µM (inactive) | > 100 µM (inactive) | > 100 µM (inactive) | > 100 µM (inactive) | > 100 µM (inactive) | > 100 µM (inactive) | > 100 µM (inactive)
Cc1c(Cl)cc(C(C)(C)C)c(O)c1Cc1c(C)c(Cl)cc(C(C)(C)C)c1O | 1.26 µM (inactive) | 0.804 µM (active) | 1.96 µM (inactive) | 2.21 | 0.304 µM (active) | 0.752 µM (active) | 1.44 µM (inactive) | 1.56 µM (inactive) | 2.42 µM (inactive) | 1 µM (active) | 1.65 µM (inactive) | 0.818 µM (active) | 0.406 µM (active) | 0.656 µM (active) | 0.299 µM (active) | 2.14 µM (inactive) | 1.87 µM (inactive) | 2.18 µM (inactive) | 0.562 µM (active) | 1.62 µM (inactive)
COc1ccc(/C=C/c2cnc3ccccc3n2)cc1OC | 45.7 µM (inactive) | 42.6 µM (inactive) | > 100 µM (inactive) | 37 | 94.8 µM (inactive) | 44.5 µM (inactive) | 47.8 µM (inactive) | 83.8 µM (inactive) | 75.7 µM (inactive) | 54.5 µM (inactive) | 99.8 µM (inactive) | > 100 µM (inactive) | 38.2 µM (inactive) | 67.8 µM (inactive) | 24.1 µM (inactive) | 38.2 µM (inactive) | 52.7 µM (inactive) | > 100 µM (inactive) | 31 µM (inactive) | 77.3 µM (inactive)
CN(N=O)N1C(=O)SCC(c2ccccc2)(c2ccccc2)C1=O | > 100 µM (inactive) | 7.98 µM (inactive) | 91 µM (inactive) | 41.7 | 38.9 µM (inactive) | 65.2 µM (inactive) | 30.1 µM (inactive) | 30 µM (inactive) | 37.5 µM (inactive) | 20.9 µM (inactive) | 37.3 µM (inactive) | 61.8 µM (inactive) | 34.1 µM (inactive) | > 100 µM (inactive) | 23.3 µM (inactive) | 34.4 µM (inactive) | 31.6 µM (inactive) | 37.5 µM (inactive) | 67.8 µM (inactive) | 37.8 µM (inactive)
CC(=O)OCC1OC(n2c3c(c(-c4ccc(Cl)cc4)c(C#N)c2=S)CCCC3)C(OC(C)=O)C(OC(C)=O)C1OC(C)=O (configuration not stated) | 35.2 µM (inactive) | 36.1 µM (inactive) | 42.6 µM (inactive) | 61.2 | 7.29 µM (inactive) | 44 µM (inactive) | 71.4 µM (inactive) | 44.9 µM (inactive) | 81.1 µM (inactive) | > 100 µM (inactive) | > 100 µM (inactive) | 25.1 µM (inactive) | 56.8 µM (inactive) | 46.5 µM (inactive) | 40.7 µM (inactive) | 46.5 µM (inactive) | 88.5 µM (inactive) | > 100 µM (inactive) | 36.7 µM (inactive) | 23.3 µM (inactive)
COc1cc2c(cc1OCc1ccccc1)NC(=O)[C@@H]1CCCN1C2=O | > 100 µM (inactive) | > 100 µM (inactive) | > 100 µM (inactive) | > 100 | > 100 µM (inactive) | > 100 µM (inactive) | > 100 µM (inactive) | > 100 µM (inactive) | > 100 µM (inactive) | > 100 µM (inactive) | > 100 µM (inactive) | > 100 µM (inactive) | > 100 µM (inactive) | > 100 µM (inactive) | > 100 µM (inactive) | > 100 µM (inactive) | > 100 µM (inactive) | > 100 µM (inactive) | > 100 µM (inactive) | > 100 µM (inactive)
Cc1oc2c(Cl)cc(O)c(Cl)c2c2cccc1-2 | 42 µM (inactive) | 28.2 µM (inactive) | 8.85 µM (inactive) | 21.5 | 14.9 µM (inactive) | 12.6 µM (inactive) | 17.7 µM (inactive) | 16.9 µM (inactive) | 28.6 µM (inactive) | 9.73 µM (inactive) | 33.6 µM (inactive) | – | 25.7 µM (inactive) | 19.5 µM (inactive) | 26.4 µM (inactive) | 28.8 µM (inactive) | 25.9 µM (inactive) | 12.5 µM (inactive) | 1.96 µM (inactive) | 28.6 µM (inactive)
O=C(c1nc2ccc([N+](=O)[O-])cc2nc1O)C(O)c1ccc2c(c1)OCO2 (configuration not stated) | > 100 µM (inactive) | > 100 µM (inactive) | > 100 µM (inactive) | > 62.2 | > 100 µM (inactive) | > 78.9 µM (inactive) | > 51.2 µM (inactive) | > 67.9 µM (inactive) | > 94 µM (inactive) | 96.8 µM (inactive) | > 100 µM (inactive) | > 100 µM (inactive) | > 100 µM (inactive) | > 100 µM (inactive) | 14.8 µM (inactive) | > 100 µM (inactive) | > 100 µM (inactive) | > 100 µM (inactive) | > 100 µM (inactive) | 96.4 µM (inactive)
COc1cc(OC)c(OC)cc1/C=N/N=C(\N)NO | > 100 µM (inactive) | > 100 µM (inactive) | > 100 µM (inactive) | > 100 | 77.6 µM (inactive) | 88.7 µM (inactive) | 18.5 µM (inactive) | > 100 µM (inactive) | > 100 µM (inactive) | > 100 µM (inactive) | > 100 µM (inactive) | > 100 µM (inactive) | > 100 µM (inactive) | > 100 µM (inactive) | > 100 µM (inactive) | > 100 µM (inactive) | > 100 µM (inactive) | > 100 µM (inactive) | > 100 µM (inactive) | > 100 µM (inactive)
CC(C)CC(NC(=O)OC(C)(C)C)C(=O)Nc1ccc(Nc2nc(F)nc(-c3c4ccccc4cn3C)n2)cc1 (configuration not stated) | 98.6 µM (inactive) | > 100 µM (inactive) | 20.3 µM (inactive) | > 68.9 | 52.2 µM (inactive) | 62.2 µM (inactive) | 12.6 µM (inactive) | > 100 µM (inactive) | > 100 µM (inactive) | 4.89 µM (inactive) | 66.1 µM (inactive) | 59.7 µM (inactive) | > 100 µM (inactive) | 62.5 µM (inactive) | 75.3 µM (inactive) | > 100 µM (inactive) | > 100 µM (inactive) | 53.6 µM (inactive) | 40.4 µM (inactive) | > 100 µM (inactive)
COC(=O)C1=C(C)NC(C)=C([N+](=O)[O-])C1c1cccc(NO)c1 (configuration not stated) | 6.24 µM (inactive) | 3.86 µM (inactive) | 6.67 µM (inactive) | 2.84 | 3.6 µM (inactive) | 2.72 µM (inactive) | 2.54 µM (inactive) | 3.5 µM (inactive) | 3.44 µM (inactive) | 3.94 µM (inactive) | 3.64 µM (inactive) | 3.46 µM (inactive) | 4.31 µM (inactive) | 4.94 µM (inactive) | 3.67 µM (inactive) | 4.16 µM (inactive) | 4.75 µM (inactive) | 2.53 µM (inactive) | 3.27 µM (inactive) | 6.55 µM (inactive)
COC(=O)c1ccccc1C1CN=NC12Cc1c(C)cccc1C2=O (configuration not stated) | > 100 µM (inactive) | 61.5 µM (inactive) | > 100 µM (inactive) | > 100 | 29.1 µM (inactive) | > 100 µM (inactive) | > 100 µM (inactive) | 45.1 µM (inactive) | > 100 µM (inactive) | > 100 µM (inactive) | > 100 µM (inactive) | 69.5 µM (inactive) | > 100 µM (inactive) | > 100 µM (inactive) | > 100 µM (inactive) | 60.8 µM (inactive) | > 100 µM (inactive) | > 100 µM (inactive) | 52.7 µM (inactive) | > 100 µM (inactive)
CC(=O)c1ccc2c(c1)CC1(C2)Cc2cc3c(cc2C1=O)CCC3 (configuration not stated) | 19.5 µM (inactive) | 20.9 µM (inactive) | 24.3 µM (inactive) | 29 | 25.9 µM (inactive) | 16.5 µM (inactive) | 17.5 µM (inactive) | 17.7 µM (inactive) | 15 µM (inactive) | 20.8 µM (inactive) | 20.6 µM (inactive) | 4.28 µM (inactive) | 13.3 µM (inactive) | 21.5 µM (inactive) | 22.7 µM (inactive) | 12.2 µM (inactive) | 16.7 µM (inactive) | 3.04 µM (inactive) | 20.5 µM (inactive) | –
COCC1OC(N2C(=O)NC(=O)[C@@H]3C=C4CCCCC4=C[C@@H]32)C(OC)C1OC (some centres not stated) | > 100 µM (inactive) | > 100 µM (inactive) | > 100 µM (inactive) | > 100 | 75 µM (inactive) | > 100 µM (inactive) | > 100 µM (inactive) | > 100 µM (inactive) | > 100 µM (inactive) | > 100 µM (inactive) | > 100 µM (inactive) | > 100 µM (inactive) | > 100 µM (inactive) | – | > 100 µM (inactive) | > 100 µM (inactive) | > 100 µM (inactive) | 19.1 µM (inactive) | > 100 µM (inactive) | > 100 µM (inactive)
